Experimental data published in patent publication US20240041830A1, “CIRCULATING BIOMARKERS OF RESPONSE TO PD-1/PD-L1 BLOCKADE AND GSK-3 INHIBITION” (Brown University, priority 2022, published 2024).

How the values were obtained:
[1] = tested on: HCT-116; assay: microarray analysis; type: cell-based, human; conditions: HCT-116 by context; 24 hours vs untreated
Procedure: Microarrays. A total of 0.5×10^6 tumor cells (HCT-116, HT-29, KM12C) were plated in a 6-well plate and allowed to adhere overnight before 24-hour treatment, as indicated. Then, 1×10^6 immune cells (NK92, TALL-104) were plated and treated with elraglusib as indicated for twenty-four h. RNA was isolated from cell pellets in batches of six using a RNeasy Plus Mini Kit (Cat #74134, Qiagen, Hilden, Germany). Acceptable RNA concentration and quality were verified with Nanodrop and Bioanalyzer measurements. GeneChip™ Human Transcriptome Array 2.0 assays were conducted according to manufacturer instructions in two batches using randomized samples to limit batch effects (Cat #902162, Applied Biosystems, Waltham, MA, USA). Applied Biosystems Transcriptomic Analysis Console (TAC) software (RRID: SCR_016519) was used to calculate fold changes in gene expression relative to the untreated control cells. Values were considered statistically significant for p values<0.05.
The inventors then utilized microarray analysis to gain insights into gene expression changes in colorectal cancer cell lines post-GSK-3 inhibition with elraglusib. Several colorectal cancer cell lines (HCT-116, HT-29, KM12C) were treated with elraglusib at IC-50 concentrations or DMSO as vehicle control for twenty-four hours. Treated versus untreated samples were compared in triplicate using microarray analysis FIG. 10. Results were calculated using a fold change (FC) cutoff of >1.5, <−1.5, and a minimum p-value of<0.05. HCT-116 cells had 340 differentially expressed genes post-treatment. FIG. 2C.

[2] = tested on: refractory solid tumors of multiple tissue origins; assay: Phase 1 clinical trial (NCT03678883), survival; type: in vivo, human
Procedure: Clinical specimens. Archival tumor specimens and peripheral blood samples were collected from patients enrolled in the Phase I study of elraglusib (Clinicaltrials.gov NCT03678883) who received treatment at the Lifespan Cancer Institute (Providence, RI, USA). The analysis was conducted in accordance with the Declaration of Helsinki and the International Conference on Harmonization Good Clinical
Patient plasma concentrations of cytokines from a Phase 1 clinical trial investigating elraglusib correlate with progression-free survival, overall survival, and in vivo response to therapy results. To determine the clinical relevance of the biomarkers of response identified in our murine model, the inventors next employed Luminex 200 technology to analyze plasma samples from patients with refractory solid tumors of multiple tissue origins enrolled in a Phase 1 clinical trial investigating elraglusib (NCT03678883).
TABLE 14 description. Individual patient information for human cytokine analysis. Tumor type, elraglusib dose (mg, mg/kg), number of cycles, age at enrollment, sex, race, ethnicity, median progression free survival and median overall survival data is shown (N=19).

[3] = tested on: 93T449 liposarcoma; assay: Western blot analysis; type: cell-based; conditions: IC50, 48 hours
Procedure: (§1) Western blot analysis. Cells were plated in a 6-well plate and incubated overnight before the spent media was replaced with drugged media. Drug treatment lasted for indicated durations. Protein was extracted using radioimmunoprecipitation (RIPA) assay buffer (Cat #R0278, Sigma-Aldrich, St. Louis, MO, USA) containing cOmplete™, Mini, EDTA-free Protease Inhibitor Cocktail (Cat #4693159001, Roche, Basel, Switzerland) from sub-confluent cells. Denaturing sample buffer was added, samples were boiled at 95° C. for ten minutes, and an equal amount of protein lysate was electrophoresed through NuPAGE™ 4 to 12%, bis-Tris, 1.5 mm, Mini Protein Gels (Invitrogen, Waltham, MA, USA) then transferred to PVDF membranes. The PVDF membrane was blocked with 5% non-fat milk (Sigma-Aldrich, St. Louis, MO, USA) in 1× TTBS. Primary antibodies were incubated with the transferred PVDF membrane in blocking buffer at 4° C. overnight. Secondary antibodies included Goat anti-Rabbit IgG (H+L) Secondary Antibody, HRP (Cat #31460, Invitrogen, Waltham, MA, USA), and Goat anti-Mouse IgG (H+L) Secondary Antibody, HRP (Cat #31430, Invitrogen, Waltham, MA, USA). The signal was detected using Pierce™ ECL Western Blotting Substrate (Cat #32106, Thermo Scientific, Waltham, MA, USA) and a Syngene Imaging System (RRID: SCR_015770).
(§2) Saos-2 osteosarcoma and 93T449 liposarcoma cell lines were pretreated at IC50 with elraglusib. The cells were harvested for Western blot analysis after 48 hours of treatment. Both cancer cell lines as well as TALL-104 T-cells and NK-92 NK cells were treated with 0.5 μM elraglusib for twenty-four hours and harvested for Luminex cytokine profiling.

[4] = tested on: Saos-2 osteosarcoma; assay: Western blot analysis; type: cell-based; conditions: IC50, 48 hours
Procedure: as §1, §2

[5] = tested on: HT-29 GFP+ cells; assay: single-color GFP+ immune cell co-culture
Procedure: Single-color immune cell co-culture experiments. A total of 5000 HT-29 GFP+ or HCT 116 GFP+ cells were plated per well in a clear-bottom, black-walled 96-well tissue culture plate and were allowed to adhere overnight. Cells were subsequently treated with DMSO, 5 μM elraglusib, or 5000 TALL-104 or NK-92 cells (for an effector-to-tumor ratio of 1:1) for forty-eight hours. Nine images were taken per well at 10× magnification using a Molecular Devices ImageXpress® Confocal HT.ai High-Content Imaging System and quantified for the number of GFP+ objects using the MetaXpress (RRID: SCR_016654) software (Molecular Devices, San Jose, CA, USA). 40× images were also taken at twenty-four hours for representative images of cellular morphology changes.
To determine if pyroptosis-mediated immune cell activity played a role in the co-culture results, the inventors examined higher-power co-culture images for evidence of pyroptosis.

[6] = tested on: SW480; assay: multicolor co-culture of SW480 and donor-derived CD8+ T cells; conditions: co-culture with donor-derived CD8+ T cells, 24 hours, normalized
Procedure: Isolation of donor-derived CD8+ T cells. An Easy Step Human CD8+ T Cell Isolation Kit was used to isolate CD8+ T cells from a donor PBMC sample via negative selection (Cat #, 17913, Stem Cell Technologies, Vancouver, Canada).
Multicolor immune cell co-culture experiments. A total of 10,000 HCT-116, SW480, or HT-29 colorectal cancer cells were plated per well in a clear-bottom, black-walled 48-well tissue culture plate and were allowed to adhere overnight. Cells were subsequently treated with DMSO, 5 μM or 10 μM elraglusib, or 10,000 TALL-104, donor-derived CD8+ T cells, or NK-92 cells (for an effector-to-tumor ratio of 1:1) for twenty-four hours. Immune cell monocultures were treated with DMSO, 5 μM or 10 μM elraglusib and cell viability was monitored to ensure that the concentrations of drug used were not cytotoxic to immune cells. […] 10× images were captured using a Nikon Ti-U Inverted Fluorescence Microscope and NIS-Elements F Package imaging software 3.22.00 Build 710 (Nikon Instruments Inc., New York, NY, USA). The number of red/green color cells in random fields was determined using thresholding and particle analysis in the Fiji modification (RRID: SCR_002285) of ImageJ and expressed as a dead/live cell ratio. […] At least one hundred cells were evaluated per sample, with three independent replicates. […]

[7] = N=19 patients, multiple tumor types
[8] = Subject 05003, Colorectal, 1 mg/kg
[9] = Subject 05005, Colorectal, 1 mg/kg, 2 cycles

Structure (SMILES): Cn1cc(C2=C(c3coc4ccc(F)cc34)C(=O)NC2=O)c2cc3c(cc21)OCO3 [elraglusib]
- CMTM4 fold change [1]: −1.84
- NEK2 fold change [1]: −2.21
- PPP1R1C fold change [1]: 1.78
- median overall survival [2, 7]: 101 days
- median progression-free survival [2, 7]: 75.9 days
- OS [2, 8]: 26 days
- PFS [2, 8]: 26 days
- PFS ([2]; Subject 05004, Colorectal, 1 mg/kg): 28 days
- OS [2, 9]: 105 days
- PFS [2, 9]: 99 days
- OS ([2]; Subject 05006, HCC, 2 mg/kg): 234 days
- PFS ([2]; Subject 05006, HCC, 2 mg/kg): 234 days
- PFS ([2]; Subject 05009, Cholangiocarcinoma, 2 mg/kg): 46 days
- OS ([2]; Subject 05011, NSCLC, 2 mg/kg): 39 days
- PFS ([2]; Subject 05011, NSCLC, 2 mg/kg): 31 days
- PFS ([2]; Subject 05013, Colorectal, 3.3 mg/kg): 130 days
- PFS ([2]; Subject 05017, Colorectal, 5 mg/kg): 83 days
- PFS ([2]; Subject 05018, NSCLC, 5 mg/kg): 41 days
- PFS ([2]; Subject 05024, Appendix, 7 mg/kg): 41 days
- cPARP [3]: increase
- PD-L1 expression ([3]; cell line not given): increase
- cPARP [4]: increase
- PD-L1 expression ([4]; cell line not given): increase
- tumor cell death, significance ([5]; NK-92 + elraglusib vs elraglusib only): did not show statistical significance
- tumor cell death ([5]; NK-92 + elraglusib vs immune cells only and DMSO only): increased tumor cell death
- tumor cell death ([5]; TALL-104 + 5 μM elraglusib vs drug-only or T cell-only): increased tumor cell death
- pyroptotic events ([5]; co-culture with TALL-104, 5 μM elraglusib): significant increase
- dead cells out of total cells ([6]; 5 μM): 65%
- dead cells out of total cells ([6]; 10 μM): 75%
